Entries after “also recorded” stand apart in the source; their conditions may differ. Read-outs that look alike come from different tables or passages of the source.
Columns and labels:
MOLT-4 = assay: cells; details: Homo sapiens
Procedure: The screening assay is performed on a 96-well microtitre plates.
Dose response curves, shown in the above mentioned Figures, are obtained by exposing various cancer cell lines to compounds having a known concentration ([log10 M]), as discussed in detail above, and then plotting the percentage growth of each cell line for each concentration. […] As discussed previously, the five drug dilutions routinely tested range from 10^-4 to 10^-9 molar.

SR = assay: cells; assay type: cell-based; details: Homo sapiens, read-out: Log10 TGI (converted)
A549/ATCC = assay: NCI 60 cell line screen (SRB), non-small cell lung cancer; assay type: cell-based; details: Homo sapiens
EKVX = assay: as above; assay type: cell-based; details: Homo sapiens
HOP-62 = assay: cells; assay type: cell-based; details: Homo sapiens
HOP-92 = assay: NCI 60 cell line screen (SRB), non-small cell lung cancer; assay type: cell-based; details: Homo sapiens
NCI-H226 = assay: as above; assay type: cell-based; details: Homo sapiens
NCI-H23 = assay: as above; assay type: cell-based; details: Homo sapiens
NCI-H460 = assay: cells; assay type: cell-based; details: Homo sapiens
HCT-116 = assay: cells; assay type: cell-based; details: Homo sapiens
HCT-15 = assay: cells; assay type: cell-based; details: Homo sapiens, HCT-15; read-out: Log10 TGI (converted)
HT29 = assay: cells; assay type: cell-based; details: Homo sapiens, HT-29, read-out: Log10 TGI (converted)
KM12 = assay: cells; assay type: cell-based; details: Homo sapiens, read-out: Log10 TGI (converted)
SW-620 = assay: NCI 60 cell line screen (SRB), colon cancer; assay type: cell-based; details: Homo sapiens, read-out: Log10 TGI (converted)
SNB-19 = assay: cells; assay type: cell-based; details: Homo sapiens
SNB-75 = assay: cells; assay type: cell-based; details: Homo sapiens, read-out: Log10 TGI (converted)
U251 = assay: cells; assay type: cell-based; details: Homo sapiens
SK-MEL-2 = assay: cells; assay type: cell-based; details: Homo sapiens
UACC-257 = assay: cells; assay type: cell-based; details: Homo sapiens, read-out: Log10 TGI (converted)
OVCAR-3 = assay: NCI 60 cell line screen (SRB), ovarian cancer; assay type: cell-based; details: Homo sapiens
OVCAR-8 = assay: NCI 60 cell line screen (SRB), ovarian cancer; assay type: cell-based; details: Homo sapiens
A498 = assay: cells; assay type: cell-based; details: Homo sapiens
TK-10 = assay: cells; assay type: cell-based; details: Homo sapiens, read-out: Log10 GI50 (converted)
UO-31 = assay: NCI 60 cell line screen (SRB), renal cancer; assay type: cell-based; details: Homo sapiens, read-out: Log10 TGI (converted)
PC-3 = assay: cells; assay type: cell-based; details: Homo sapiens, PC-3
MCF7 = assay: cells; assay type: cell-based; details: Homo sapiens, MCF7
MDA-MB231/ATCC = assay: cells; assay type: cell-based; details: Homo sapiens
HS 578T = assay: cells; assay type: cell-based; details: Homo sapiens
MDA-N = assay: cells; assay type: cell-based; details: Homo sapiens
BT-549 = assay: cells; assay type: cell-based; details: Homo sapiens
T-47D = assay: cells; assay type: cell-based; details: Homo sapiens, T47D; T-47D; read-out: Log10 TGI (converted)
60 cell line panel = assay: NCI 60 cell line screen, whole panel; assay type: cell-based
IGROVI = assay: cells; details: 60 cell, read-out: Log10 TGI
ACHN = assay: cells; details: Homo sapiens
RXF 393 = assay: cells; details: Homo sapiens
M14 = assay: NCI 60 cell line screen (SRB), melanoma; details: Homo sapiens
[1] = read-out: Log10 LC50 (converted)
[2] = read-out: Log10 TGI (converted)
[3] = read-out: Log10 GI50 (converted)

C[C@H]1[C@@H](CC(=O)c2ccc(C(=O)C[C@H]3O[C@@H]4O[C@@]5(C)CC[C@H]6[C@H](C)CC[C@@H]([C@H]3C)[C@@]46OO5)cc2)O[C@@H]2O[C@@]3(C)CC[C@H]4[C@H](C)CC[C@@H]1[C@@]24OO3 [Dimer 21]
IC (TGI) (MOLT-4; MOLT-4, read-out: Log10 TGI): 12.9 µM | IC (TGI) (MOLT-4; MOLT-4, read-out: concentration for cytostasis): ~100 µM | GI50 (MOLT-4; MOLT-4, read-out: concentration for primary growth inhibition): < 0.1 µM | IC (TGI) (SR): > 100 µM | CC50 (A549/ATCC; [1]): 37.2 µM | IC (TGI) (A549/ATCC; [2]): 13.5 µM | GI50 (EKVX; [3]): 1.15 µM | CC50 (EKVX; [1]): > 100 µM | IC (TGI) (EKVX; [2]): 26.3 µM | GI50 (HOP-62; [3]): 0.417 µM | CC50 (HOP-62; [1]): 52.5 µM | IC (TGI) (HOP-62; [2]): 17.4 µM | GI50 (HOP-92; [3]): 0.0708 µM | CC50 (HOP-92; [1]): 83.2 µM | IC (TGI) (HOP-92; [2]): 17.4 µM | GI50 (NCI-H226; [3]): 0.0832 µM | CC50 (NCI-H226; [1]): > 100 µM | IC (TGI) (NCI-H226; [2]): 28.2 µM | GI50 (NCI-H23; [3]): 0.012 µM | IC (TGI) (NCI-H23; [2]): > 100 µM | IC (TGI) (NCI-H460; NCI-H460, read-out: Log10 TGI): > 100 µM | GI50 (NCI-H460; NCI-H460, read-out: Log10 GI50 (converted)): 0.525 µM | CC50 (NCI-H460; NCI-H460, read-out: Log10 LC50 (converted)): > 100 µM | CC50 (HCT-116; [1]): 51.3 µM | IC (TGI) (HCT-116; [2]): 12.6 µM | IC (TGI) (HCT-15): 24.5 µM | IC (TGI) (HT29): 15.1 µM | IC (TGI) (KM12): 14.5 µM | IC (TGI) (SW-620): 87.1 µM | GI50 (SNB-19; [3]): 0.537 µM | IC (TGI) (SNB-19; [2]): 41.7 µM | IC (TGI) (SNB-75): 34.7 µM | CC50 (U251; U-251, read-out: Log10 LC50 (converted)): 41.7 µM | IC (TGI) (U251; U-251, read-out: Log10 TGI (converted)): 17 µM | GI50 (SK-MEL-2; [3]): 0.0389 µM | CC50 (SK-MEL-2; [1]): 25.1 µM | IC (TGI) (SK-MEL-2; [2]): 0.55 µM | IC (TGI) (UACC-257): 17.8 µM | GI50 (OVCAR-3; [3]): 0.692 µM | IC (TGI) (OVCAR-3; [2]): 28.2 µM | CC50 (OVCAR-8; [1]): 41.7 µM | IC (TGI) (OVCAR-8; [2]): 12.3 µM | GI50 (A498; [3]): 1.82 µM | CC50 (A498; [1]): 64.6 µM | IC (TGI) (A498; [2]): 19.1 µM | GI50 (TK-10): 0.00288 µM | IC (TGI) (UO-31): 57.5 µM | CC50 (PC-3; [1]): 47.9 µM | IC (TGI) (PC-3; [2]): 11.5 µM | CC50 (MCF7; [1]): 53.7 µM | IC (TGI) (MCF7; [2]): 13.2 µM | GI50 (MDA-MB231/ATCC; MDA-MB-231, read-out: Log10 GI50 (converted)): 0.178 µM | CC50 (MDA-MB231/ATCC; MDA-MB-231, read-out: Log10 LC50 (converted)): 46.8 µM | IC (TGI) (MDA-MB231/ATCC; MDA-MB-231, read-out: Log10 TGI (converted)): 16.2 µM | CC50 (HS 578T; [1]): 72.4 µM | IC (TGI) (HS 578T; [2]): 15.1 µM | CC50 (MDA-N; [1]): 39.8 µM | IC (TGI) (MDA-N; [2]): 5.75 µM | GI50 (BT-549; [3]): 0.263 µM | IC (TGI) (BT-549; [2]): 49 µM | IC (TGI) (T-47D): 2.57 µM | GI50 (60 cell line panel; 60 cell, mean over panel, read-out: Log10 GI50 MG MID (converted)): 0.0589 µM | IC (TGI) (60 cell line panel; 60 cell, mean over panel, read-out: Log10 TGI MG MID (converted)): 93300 µM | CC50 (60 cell line panel; Homo sapiens, 60 cell, mean over panel, read-out: Log10 LC50 MG MID (converted)): 64.6 µM | potency compared with artemisinin (60 cell line panel; Tables III, IV and V): more potent than artemisinin | potency compared with paclitaxel (60 cell line panel; Tables III, IV and V): in most instances are as potent and in some instances more potent than paclitaxel; also recorded: equivalent to and in many instances higher in potency than paclitaxel | Log10 TGI Range (60 cell line panel; panel): 4.00 | IC (TGI) (IGROVI): 12 µM | GI50 (ACHN; [3]): 0.0195 µM | CC50 (ACHN; [1]): > 100 µM | IC (TGI) (ACHN; read-out: Log10 TGI): 69.2 µM | GI50 (RXF 393; RXF 393, read-out: Log10 GI50 (converted)): 2.57 µM | CC50 (RXF 393; RXF 393, read-out: Log10 LC50 (converted)): 49 µM | IC (TGI) (RXF 393; RXF 393, read-out: Log10 TGI): 19.5 µM | GI50 (M14; M14, read-out: Log10 GI50 (converted)): 1.26 µM | CC50 (M14; M14, read-out: Log10 LC50 (converted)): 45.7 µM | IC (TGI) (M14; M14, read-out: Log10 TGI): 17.8 µM

Source: patent publication US6156790A, “C-10 carbon-substituted artemisinin-like trioxane compounds having antimalarial, antiproliferative and antitumor activities” (priority 1997, dated 2000)
